In the METLIN SMRT retention time set (Domingo-Almenara et al. 2019):

Test: gradient 5% acetonitrile 3 min, to 50% in 2 min, to 85% in 15 min, held 3 min, 100 µL/min
Settings: column: Zorbax Extend-C18 2.1 x 50 mm; eluents: water / acetonitrile, 0.1% formic acid
Procedure, shortened: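 A Zorbax Extend-C18 column (2.1 × 50 mm, 1.8 μm) run at 100 μL/min with water and acetonitrile, both containing 0.1% formic acid, separated mixtures of ~100 pure standards. The HPLC was coupled to a quadrupole time-of-flight mass spectrometer operated in positive and negative ionization mode, with dead and dwell volumes of 40 μL and 900 μL. Each retention time was taken from a computationally picked adduct peak that was then manually inspected.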

Row | Compound | RP-LC retention time
1 | COc1ccc(NC(=O)C2CCCN(c3nc4ccccc4nc3C(F)(F)F)C2)cc1OC (stereo unspecified) | 1060 s
2 | COc1cccc(-c2noc(Cn3c(=O)n(-c4ccc(C)cc4)c(=O)c4sccc43)n2)c1 | 1030 s
3 | C(=C/c1nc2ccccc2o1)/c1ccc2c(c1)OCO2 | 1010 s
4 | Cc1oc(-c2ccc(C(=O)NCCCN3CCOCC3)cc2)nc1CSc1ccccc1 | 685 s
5 | c1ccc(Sc2ncccn2)nc1 | 662 s
6 | Cc1cc(=O)n(CC(=O)NCc2ccc(F)cc2)c(N2CCOCC2)n1 | 647 s
7 | Cc1c(CNCc2ccco2)c(C(=O)O)c(C)n1Cc1cccc(Cl)c1 | 702 s
8 | CN1CCN(CC2(O)CCC3(CCN(C(=O)c4ccsc4)CC3)CC2)CC1 | 570 s
9 | Cc1ccc(-c2nc(-c3cccc(-c4ccnn4C)c3)no2)s1 | 1160 s
10 | O=C(c1cccs1)N1CCC(Cn2c(C(F)(F)F)nc3ccccc32)CC1 | 819 s
11 | CCN1c2ccccc2C(=O)NC12CCN(C(=O)c1ccc(C)cc1)CC2 | 804 s
12 | Cc1cccc(Nc2ccc(N3CCN(C(=O)c4cccs4)CC3)nn2)n1 | 579 s
13 | CN1C(=O)c2cccnc2Sc2cc(NC(=O)c3ccncc3)ccc21 | 606 s
14 | CCn1ncn2cc(S(=O)(=O)Nc3ccc(F)cc3)cc2c1=O | 848 s
15 | C=C(CN(C)C)C(=O)c1ccccc1Cl | 594 s
16 | Cc1ccc2c(c1)N(Cc1ccc(F)cc1)N=C(C(=O)N1CCC(C)CC1)S2(=O)=O | 1060 s
17 | CCOC(=O)CNC(=O)Nc1ccccc1-c1cc2ccccc2[nH]1 | 866 s
18 | O=C(Nc1ccc(N2CCN(C3CCCCC3)C2=O)nc1)c1ccc(F)c(F)c1 | 886 s
19 | Cc1nc(-c2cnccn2)nc2c1CCC(=O)N2Cc1ccc(F)cc1 | 732 s
20 | CS(=O)(=O)N1CCC(C(=O)NCC2CCN(C(=O)Nc3ccc(F)cc3)CC2)CC1 | 622 s
21 | CCCN1CCN(CCNC(=O)C2CCCN(c3ncc(-c4ccccc4)cn3)C2)CC1 (stereo unspecified) | 639 s
22 | CCOC(=O)c1noc2nc(C)nc(NCc3ccc(Cl)cc3)c12 | 1160 s
23 | COc1cc(NS(=O)(=O)c2ccc(Nc3nc(-c4ccc(C)cc4)cs3)cc2)nc(OC)n1 | 1100 s

Row | Compound | RP-LC retention time
24 | CCOC(=O)COc1cc(-c2ccccc2)nc2ccc(NC(=O)C3CCC3)cc12 | 780 s
25 | Cc1nc(N2CCN(c3ccccn3)CC2)c2c(C)c(C(=O)Nc3ccc(F)cc3F)sc2n1 | 701 s
26 | COCc1c(C(=O)O)nnn1-c1ccc2c(c1)OCO2 | 648 s
27 | COc1ccc(-c2ncc3c(n2)CCN(C(=O)c2cc(F)ccc2Cl)C3)cc1 | 966 s
28 | CCCNC(=O)CC1=C2CCCCC2N(C)C1=O (stereo unspecified) | 638 s
29 | Cc1cccc(NC(=O)C2CCCN(S(=O)(=O)c3cn(C(C)C)cn3)C2)c1 (stereo unspecified) | 803 s
30 | O=C(Nc1ccc(OCC(=O)N2CCN(c3cccc(Cl)c3)CC2)nc1)C1CC1 | 836 s
31 | Cn1nc(C(=O)Nc2ccc(CC(=O)NCC(F)(F)F)cc2)ccc1=O | 622 s
32 | CC(C)CC(=O)Nc1ccc(N2CCN(CC(=O)N(C)C)CC2)cc1C(=O)O | 595 s
33 | O=C(CN1CCCCC1c1nc(C2CC2)no1)Nc1cccnc1 (stereo unspecified) | 592 s
34 | CCCn1cc(CCNC(=O)Nc2cc(Cl)ccc2Cl)c2cccnc21 | 963 s
35 | CCCn1ccc2sc(C)c(C(=O)NCCC(C)C)c2c1=O | 901 s
36 | Cc1[nH]nc(-c2ccc(S(=O)(=O)NC(C)C)o2)c1C | 729 s
37 | COc1cc(Cl)ccc1C(=O)NC1CCN(c2cc(-c3ccc(F)cc3)[nH]n2)C1 (stereo unspecified) | 807 s
38 | O=C(NC(c1ccccc1)c1nnc(N2CCOCC2)o1)c1ccccc1F (stereo unspecified) | 733 s
39 | O=C(NCc1ccccc1Cl)c1c[nH]c2ncccc12 | 708 s
40 | Cc1ccc(Cl)cc1N1C(=O)CN(S(C)(=O)=O)CC1(C)C(=O)NC1CCCCCC1 (stereo unspecified) | 942 s
41 | CC1CCN(C(=O)c2cn(-c3cc(-c4nc(C(C)C)no4)ccn3)cn2)CC1 | 640 s
42 | O=C(CN1C(=O)CCc2cc(Br)ccc21)Nc1ccc(F)cc1 | 903 s
43 | Cc1nnc(C2CCCCCN2C(=O)CCc2c(C)noc2C)o1 (stereo unspecified) | 674 s
44 | COCCCn1c(=O)c2ccccc2n(Cc2nc(-c3cccc(Br)c3)no2)c1=O | 1190 s
45 | COc1ncc(C(=O)NC(C)c2ccc(F)cc2)cn1 (stereo unspecified) | 756 s
46 | COc1cccc(-c2nc(-c3cccc(-c4ccnn4C)c3)no2)c1 | 1120 s

Row | Compound | RP-LC retention time
47 | COc1ccc(OC)c(NC(=O)Cn2cccc(-c3nc(-c4ccc(OC)c(OC)c4)no3)c2=O)c1 | 810 s
48 | CC(=O)Nc1ccc(NC(=O)Cn2cccc(-c3nc(-c4ccccc4)no3)c2=O)cc1 | 694 s
49 | Cc1ccc(C)c(NC(=O)Cn2cnc3nc(N4CCCC(C(=O)NC5CC5)C4)sc3c2=O)c1 (stereo unspecified) | 683 s
50 | CC(C)N(C(=O)Cn1c(CNC(=O)c2ccco2)nc2ccccc21)c1ccccc1 | 698 s
51 | Cc1cc(C)cc(-n2ncc3c(N4CCN(CCO)CC4)ncnc32)c1 | 649 s
52 | COc1ccc(C(O)CN2CCN(c3ccccc3C)CC2)cc1OC (stereo unspecified) | 654 s
53 | CCCC(=O)Nc1nc(-c2ccc3c(c2)N(CCC)C(=O)CO3)cs1 | 935 s
54 | Cc1ccc(Sc2nccnc2N2CCCC(C(=O)NCc3ccc(C)o3)C2)cc1 (stereo unspecified) | 1080 s
55 | O=C(CNC(=O)c1ccc(C(F)(F)F)cc1)Nc1nc2ccccc2[nH]1 | 688 s
56 | O=C(CC1Sc2ccc(C(F)(F)F)cc2NC1=O)Nc1cccc(Cl)c1Cl (stereo unspecified) | 993 s
57 | CNC(=O)C1CN(S(=O)(=O)c2cccs2)CC12CCCCC2 (stereo unspecified) | 697 s
58 | O=C(NCc1cccs1)C1CCCN(c2nc3ccsc3c(=O)n2Cc2ccc(F)cc2)C1 (stereo unspecified) | 899 s
59 | Cc1ccc(Cl)cc1S(=O)(=O)NCC(=O)N1CCOC(c2ccccc2)C1 (stereo unspecified) | 910 s
60 | O=C(Cc1ccsc1)N1CCC(c2nc(-c3ccccc3)no2)C1 (stereo unspecified) | 864 s
61 | CCCn1c(CN2CCCC2)nc2cc(NC(=O)C(C)C)ccc21 | 595 s
62 | CO[C@H]1C(=O)N(C2CCN(S(=O)(=O)c3ccc4c(c3)CCC4)CC2)[C@H]1c1ccncc1 | 704 s
63 | Cc1cc(NC(=O)CN2CCc3[nH]c4c(C)ccc(C)c4c(=O)c3C2)ccc1F | 666 s
64 | Cc1oc2ccn(Cc3ccc(F)cc3)c(=O)c2c1C(=O)NCc1cc(F)cc(F)c1 | 1130 s
65 | CCOC(=O)c1nc(NCc2ccccc2OC)c2c(CC)noc2n1 | 943 s
66 | O=C(C1CCCCC1)N1CCN(c2nc(CN3CCOCC3)cs2)CC1 | 617 s
67 | CC(C)(CO)NCc1ccc(-c2cccc(C(F)(F)F)c2)o1 | 660 s
68 | CCCCCc1nnc(NC(=O)C2CC(=O)N(CCc3c[nH]c4ccc(C)cc34)C2)s1 (stereo unspecified) | 873 s
69 | O=C(Cn1cnc(-c2ccc(F)cc2)cc1=O)NCc1ccco1 | 684 s

Row | Compound | RP-LC retention time
70 | O=C(c1ccc(-c2csc(C3CC3)n2)cc1)N1CCN(c2ncccn2)CC1 | 912 s
71 | O=C(Cn1ccc2sccc2c1=O)Nc1ccc(Cl)cc1F | 802 s
72 | CCC(C)NC(=O)C1CCN(Cc2cn(C)c3ccc(Cl)cc23)CC1 (stereo unspecified) | 673 s
73 | CNC(=O)c1n[nH]c2c1CC(C(C)(C)C)CC2 (stereo unspecified) | 786 s
74 | COc1ccc(CCN2C(=O)C(NC(=O)C3CC3)(C(F)(F)F)C3=C2CC(C)(C)CC3=O)cc1OC (stereo unspecified) | 847 s
75 | Cc1cccc(-c2ccc(N3CCCC(C(=O)NC4CCCC4)C3)nn2)c1 (stereo unspecified) | 708 s
76 | CCn1c(C(=O)NCCN2CCCC2)c(N2CCCC2=O)c2cc(OC)ccc21 | 624 s
77 | COC1CCC12CCN(C(=O)c1cnccn1)CC2 (stereo unspecified) | 657 s
78 | CN1C(=O)CSc2cnn(CC(=O)NC3CCCC3)c(=O)c21 | 637 s
79 | CCOc1ccc(-c2cn3ccn(-c4cc(C)cc(C)c4)c(=O)c3n2)cc1 | 965 s
80 | COCCNC(=O)NCC1(c2ccccc2)CCOCC1 | 615 s
81 | Cc1nc2ccn(Cc3ccco3)c(=O)c2cc1C(=O)N1CCC(C)CC1 | 746 s
82 | Cc1ccsc1C(=O)N1CCN(c2cc(-c3ccccc3)[nH]n2)CC1 | 744 s
83 | Cn1cc(S(=O)(=O)N2CCC(C(=O)N3CCc4ccccc43)CC2)cc1C(=O)N1CCCC1 | 805 s
84 | COc1cccc(-c2noc(C3CC(=O)N(c4cc(C)cc(C)c4)C3)n2)c1OC (stereo unspecified) | 1020 s
85 | Cn1cnc(S(=O)(=O)N2CCC(C(=O)NCc3ccc(F)cc3)CC2)c1 | 670 s
86 | CC(C)n1c(CN2CCOCC2)nc2cc(NC(=O)c3ccco3)ccc21 | 619 s
87 | COc1ccccc1Oc1ccc(S(=O)(=O)NCc2ccco2)cc1 | 873 s
88 | CN(C)CCn1nnc2cc(-c3noc(-c4ccccc4Br)n3)ccc21 | 681 s
89 | CC(C)NC(=O)c1ccc(OCC2CCN(C(=O)C(C)C)CC2)cc1 | 756 s
90 | O=C(NCCc1ccc(Cl)cc1)C1CCCN(c2ncnc3c2nc2n3CCCCC2)C1 (stereo unspecified) | 838 s
91 | Cc1ccc(-c2cc(C(=O)N3CCC(NC(=O)c4ccc5c(c4)OCO5)CC3)[nH]n2)c(C)c1 | 787 s
